# Experimental data as given in US20260008818A1, “CYCLIC PEPTIDE OR SALT THEREOF, AND USES THEREOF” (FUJIFILM Corporation, priority 2023, published 2026).
# Bridge positions count the residues as written; N and C are the ends. Ends that are not written are not given here. COCH2 = acetyl group that carries the bridge
# System: Recombinant Human FGFR1 alpha (IIIc) Fc Chimera Protein
# Assay: Binding affinity of enzymatically synthesized cyclic peptide to FGFR by ELISA
# Settings: luminescence signal at reaction concentration 10 nmol/L, SEQ ID NO: 39 standardized to 1, enzyme synthesis product
# Summary of the method: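 Plate-immobilized FGFR1α(IIIc)-Fc (5 ng/well) incubated with Myc-tagged cyclic peptide 3 h at room temperature; bound peptide detected with anti-Myc antibody (2 h) and chemiluminescence. Signal is FGFR minus no-FGFR wells, normalized to SEQ ID NO: 39 at 10 nmol/L and graded A–D.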
row,Substance,Evaluation result of binding affinity to FGFR
1,145 (HCSYERLGFHGHEAPFRVK(COCH2)V; thioether 2-19 (inferred)) [compound 145],C (0.1 or more and less than 0.5)
2,83 (HCPYERLQFHGHEAPFRVKV; not fully specified; Description of Artificial Sequence: Cyclic peptide) [compound 83],A (0.7 or more)
3,171 (HCSYERLQFQGHEAPFRVK(COCH2)V; thioether 2-19 (inferred)) [compound 171],A (0.7 or more)
4,202 (HCSYERLQFHGHEAPFRLK(COCH2)V; thioether 2-19 via Ac; not fully specified) [compound 202],C (0.1 or more and less than 0.5)
5,250 (QCLWAQLQLLTHLAPYIVK(COCH2)I; thioether 2-19 (inferred)) [compound 250],C (0.1 or more and less than 0.5)
6,257 (VCPLTLQGWQAPFWVVK(COCH2)E; thioether 2-17 (inferred)) [compound 257],C (0.1 or more and less than 0.5)
7,40 (QCDVWYWLGHRVPFHPVK(COCH2)V; thioether 2-18 (inferred)) [compound 40],B (0.5 or more and less than 0.7)
8,219 (HCSYERLQFHGHEAPFRVK(COCH2)T; thioether 2-19 via Ac; not fully specified) [compound 219],A (0.7 or more)
9,174 (HCSYERLQFEGHEAPFRVK(COCH2)V; thioether 2-19 (inferred)) [compound 174],B (0.5 or more and less than 0.7)
10,142 (HCSYERFQFHGHEAPFRVK(COCH2)V; thioether 2-19 (inferred)) [compound 142],C (0.1 or more and less than 0.5)
11,82 (HCGYERLQFHGHEAPFRVKV; not fully specified; Description of Artificial Sequence: Cyclic peptide) [compound 82],A (0.7 or more)
12,37 (CDRTLLYYRLSK(COCH2); thioether 1-12; not fully specified; printed as (C)-DRTLLYYRLS-(K(acetyl))) [compound 37],D (less than 0.1)
13,73 (YCSYERLQFHGHEAPFRVK(COCH2)V; thioether 2-19 (inferred)) [compound 73],A (0.7 or more)
14,152 (HCSYERLNFHGHEAPFRVK(COCH2)V; thioether 2-19 (inferred)) [compound 152],A (0.7 or more)
15,115 (HCSYERLQFHGHEANFRVK(COCH2)V; thioether 2-19 (inferred)) [compound 115],B (0.5 or more and less than 0.7)
16,162 (HCSYERLQWHGHEAPFRVK(COCH2)V; thioether 2-19 (inferred)) [compound 162],B (0.5 or more and less than 0.7)
17,149 (HCSYERLFFHGHEAPFRVK(COCH2)V; thioether 2-19 (inferred)) [compound 149],A (0.7 or more)
18,111 (HCSYERLQFHGYEAPFRVK(COCH2)V; thioether 2-19 (inferred)) [compound 111],C (0.1 or more and less than 0.5)
19,167 (HCSYERLQFFGHEAPFRVK(COCH2)V; thioether 2-19 (inferred)) [compound 167],A (0.7 or more)

row,Substance,Evaluation result of binding affinity to FGFR
1,143 (HCSYERYQFHGHEAPFRVK(COCH2)V; thioether 2-19 (inferred)) [compound 143],B (0.5 or more and less than 0.7)
2,234 (HK(COCH2)TWERLRFLGHIAPFWVCR; thioether 2-19 (inferred)) [compound 234],A (0.7 or more)
3,204 (HCSYERLQFHGHEAPFRFK(COCH2)V; thioether 2-19 via Ac; not fully specified) [compound 204],C (0.1 or more and less than 0.5)
4,260 (ECVLQRLFFEGHLAPFILK(COCH2)I; thioether 2-19 (inferred)) [compound 260],B (0.5 or more and less than 0.7)
5,208 (HCSYERLQFHGHEAPFRTK(COCH2)V; thioether 2-19 via Ac; not fully specified) [compound 208],C (0.1 or more and less than 0.5)
6,105 (HCSYERLQFHFHEAPFRVK(COCH2)V; thioether 2-19 (inferred)) [compound 105],C (0.1 or more and less than 0.5)
7,120 (HCSYGRLQFHGHEAPFRVK(COCH2)V; thioether 2-19 (inferred)) [compound 120],B (0.5 or more and less than 0.7)
8,166 (HCSYERLQFVGHEAPFRVK(COCH2)V; thioether 2-19 (inferred)) [compound 166],A (0.7 or more)
9,248 (QCWKRVRVYGFFAPFVHK(COCH2)I; thioether 2-18 (inferred)) [compound 248],B (0.5 or more and less than 0.7)
10,164 (HCSYERLQFLGHEAPFRVK(COCH2)V; thioether 2-19 (inferred)) [compound 164],A (0.7 or more)
11,156 (HCSYERLRFHGHEAPFRVK(COCH2)V; thioether 2-19 (inferred)) [compound 156],A (0.7 or more)
12,77 (SCSYERLQFHGHEAPFRVK(COCH2)V; thioether 2-19 (inferred)) [compound 77],A (0.7 or more)
13,170 (HCSYERLQFNGHEAPFRVK(COCH2)V; thioether 2-19 (inferred)) [compound 170],B (0.5 or more and less than 0.7)
14,158 (HCSYERLQLHGHEAPFRVK(COCH2)V; thioether 2-19 (inferred)) [compound 158],B (0.5 or more and less than 0.7)
15,76 (QCSYERLQFHGHEAPFRVK(COCH2)V; thioether 2-19 (inferred)) [compound 76],A (0.7 or more)
16,137 (HCSYEILQFHGHEAPFRVK(COCH2)V; thioether 2-19 (inferred)) [compound 137],A (0.7 or more)
17,124 (HCSYVRLQFHGHEAPFRVK(COCH2)V; thioether 2-19 (inferred)) [compound 124],B (0.5 or more and less than 0.7)
18,196 (HCSYERLQFHGHEAPFWVK(COCH2)V; thioether 2-19 via Ac) [compound 196],A (0.7 or more)

# Further lines, results first:
row,Evaluation result of binding affinity to FGFR,Substance
1,A (0.7 or more),307 (HCSYERLQFHGHEAPFMVK(COCH2)V; thioether 2-19 (inferred)) [compound 307]
2,C (0.1 or more and less than 0.5),372 (CRLIFHGHEAPFWVK(COCH2)V; thioether 1-15) [compound 372]
3,A (0.7 or more),371 (CERLIFHGHEAPFWVK(COCH2)V; thioether 1-16) [compound 371]
4,B (0.5 or more and less than 0.7),290 (HCSYERLQFHGHKAPFRVK(COCH2)V; thioether 2-19 (inferred)) [compound 290]
5,C (0.1 or more and less than 0.5),338 (PCLAPYGWVILDWGLVSNWK(COCH2)Y; thioether 2-20 (inferred)) [compound 338]
6,C (0.1 or more and less than 0.5),310 (YCTWERLIFLGHIAPFWVK(COCH2)R; thioether 2-19 (inferred)) [compound 310]
7,A (0.7 or more),333 (HCVYERLIFHGHIAPFWVK(COCH2)V; thioether 2-19 (inferred)) [compound 333]
8,C (0.1 or more and less than 0.5),266 (PCSWVQLQYQGFTAPFLVK(COCH2)Y; thioether 2-19 (inferred)) [compound 266]
9,C (0.1 or more and less than 0.5),289 (HCSYERLQFHKHEAPFRVK(COCH2)V; thioether 2-19 (inferred)) [compound 289]
10,A (0.7 or more),284 (HCKYERLQFHGHEAPFRVK(COCH2)V; thioether 2-19 (inferred)) [compound 284]
11,A (0.7 or more),332 (HCTYERLIFHGHIAPFWVK(COCH2)V; thioether 2-19 (inferred)) [compound 332]
12,C (0.1 or more and less than 0.5),361 (QCPWSTTQQVPFIK(COCH2)V; thioether 2-14) [compound 361]
13,C (0.1 or more and less than 0.5),369 (HASYERCIFHGHEAPFWVK(COCH2)V; thioether 7-19) [compound 369]
14,C (0.1 or more and less than 0.5),343 (QCWQQAYAYFPHVLAPFLVK(COCH2)S; thioether 2-20) [compound 343]
15,C (0.1 or more and less than 0.5),340 (HCLVKRLVSAWGELAPFWVK(COCH2)V; thioether 2-20) [compound 340]
16,C (0.1 or more and less than 0.5),297 (HCSMERLQFHGHEAPFRVK(COCH2)V; thioether 2-19 (inferred)) [compound 297]
17,C (0.1 or more and less than 0.5),355 (RCYFSRQGFWPFTYKLPFWVK(COCH2)H; thioether 2-21) [compound 355]
18,C (0.1 or more and less than 0.5),315 (HCTYERLIFLGHIAPFWVK(COCH2)R; thioether 2-19 (inferred)) [compound 315]
19,C (0.1 or more and less than 0.5),279 (YCTIQRLWLLHEAPFWVK(COCH2)T; thioether 2-18 (inferred)) [compound 279]
